{"source": "ChEMBL document CHEMBL6134890", "about": "“Terminally Symmetric β-Turn Peptides for Multidrug-Resistant Bacterial Infections” (J Med Chem, 2025)", "key": {"Staphylococcus aureus [1]": {"tested_on": "Staphylococcus aureus", "assay": "Antimicrobial activity against Staphylococcus aureus ATCC 25923 assessed as reduction in bacterial growth by broth dilution method", "format": "functional"}, "Staphylococcus aureus [2]": {"tested_on": "Staphylococcus aureus", "assay": "Antimicrobial activity against multi-drug resistant Staphylococcus aureus assessed as reduction in bacterial growth by broth dilution method", "format": "functional"}, "[3]": {"tested_on": "Staphylococcus epidermidis", "assay": "Antimicrobial activity against multi-drug resistant Staphylococcus epidermidis assessed as reduction in bacterial growth by broth dilution method", "format": "functional"}, "Enterococcus faecalis": {"tested_on": "Enterococcus faecalis", "assay": "Antimicrobial activity against multi-drug resistant Enterococcus faecalis assessed as reduction in bacterial growth by broth dilution method", "format": "functional"}, "Escherichia coli [4]": {"tested_on": "Escherichia coli", "assay": "Antimicrobial activity against Escherichia coli ATCC 25922 assessed as reduction in bacterial growth by broth dilution method", "format": "functional"}, "Escherichia coli [5]": {"tested_on": "Escherichia coli", "assay": "Antimicrobial activity against multi-drug resistant Escherichia coli assessed as reduction in bacterial growth by broth dilution method", "format": "functional"}, "Klebsiella pneumoniae": {"tested_on": "Klebsiella pneumoniae", "assay": "Antimicrobial activity against multi-drug resistant Klebsiella pneumoniae assessed as reduction in bacterial growth by broth dilution method", "format": "functional"}, "Acinetobacter baumannii": {"tested_on": "Acinetobacter baumannii", "assay": "Antimicrobial activity against multi-drug resistant Acinetobacter baumannii assessed as reduction in bacterial growth by broth dilution method", "format": "functional"}, "[6]": {"assay": "Hemolytic activity in human Red blood cell assessed as hemolysis incubated for 1 hrs by microplate reader based analysis", "format": "toxicity", "conditions": "erythrocyte"}}, "note": "Bridge positions count the residues as written; N and C are the ends. Square brackets hold non-standard residues; d marks the D form. Peptide text beside a SMILES is read from it. * marks the point of attachment. X1 = CC[C@H](C)CCCCC(=O)*; Dab = NCC[C@H](N)C(=O)O", "data": [{"smiles": "CC[C@H](C)[C@H](N)C(=O)N[C@@H](CCCCN)C(=O)N[C@H](C(=O)N[C@@H](CCCCN)C(=O)N[C@@H](Cc1ccccc1)C(=O)N1CCC[C@H]1C(=O)N[C@@H](Cc1c[nH]c2ccccc12)C(=O)N[C@@H](Cc1c[nH]c2ccccc12)C(=O)N[C@@H](Cc1c[nH]c2ccccc12)C(=O)N1CCC[C@H]1C(=O)N[C@@H](Cc1ccccc1)C(=O)N[C@@H](CCCCN)C(=O)N[C@H](C(=O)N[C@@H](CCCCN)C(=O)N[C@H](C(N)=O)[C@@H](C)CC)[C@@H](C)CC)[C@@H](C)CC", "note": "(H-IKIKFPWWWPFKIKI-NH2)", "values": [{"measurement": "MIC", "setting": "Staphylococcus aureus [1]", "value": 16, "unit": "µM"}, {"measurement": "MIC", "setting": "Staphylococcus aureus [2]", "value": 16, "unit": "µM"}, {"measurement": "MIC", "setting": "[3]", "value": 16, "unit": "µM"}, {"measurement": "MIC", "setting": "Enterococcus faecalis", "value": 16, "unit": "µM"}, {"measurement": "MIC", "setting": "Escherichia coli [4]", "value": 16, "unit": "µM"}, {"measurement": "MIC", "setting": "Escherichia coli [5]", "value": 32, "unit": "µM"}, {"measurement": "MIC", "setting": "Klebsiella pneumoniae", "value": 256, "unit": "µM"}, {"measurement": "MIC", "setting": "Acinetobacter baumannii", "value": 16, "unit": "µM"}, {"measurement": "HC10", "setting": "[6]", "value": 9.48, "unit": "µM"}]}, {"smiles": "CC[C@H](C)[C@H](N)C(=O)N[C@@H](CCCCN)C(=O)N[C@H](C(=O)N[C@@H](CCCCN)C(=O)N[C@H](C(=O)N[C@@H](CCCCN)C(=O)N[C@@H](Cc1ccccc1)C(=O)N1CCC[C@H]1C(=O)N[C@@H](Cc1c[nH]c2ccccc12)C(=O)N[C@@H](Cc1c[nH]c2ccccc12)C(=O)N[C@@H](Cc1c[nH]c2ccccc12)C(=O)N1CCC[C@H]1C(=O)N[C@@H](Cc1ccccc1)C(=O)N[C@@H](CCCCN)C(=O)N[C@H](C(=O)N[C@@H](CCCCN)C(=O)N[C@H](C(=O)N[C@@H](CCCCN)C(=O)N[C@H](C(N)=O)[C@@H](C)CC)[C@@H](C)CC)[C@@H](C)CC)[C@@H](C)CC)[C@@H](C)CC", "note": "(H-IKIKIKFPWWWPFKIKIKI-NH2)", "values": [{"measurement": "MIC", "setting": "Staphylococcus aureus [1]", "value": 128, "unit": "µM"}, {"measurement": "MIC", "setting": "Staphylococcus aureus [2]", "value": 64, "unit": "µM"}, {"measurement": "MIC", "setting": "[3]", "value": 128, "unit": "µM"}, {"measurement": "MIC", "setting": "Enterococcus faecalis", "value": 128, "unit": "µM"}, {"measurement": "MIC", "setting": "Escherichia coli [4]", "value": 128, "unit": "µM"}, {"measurement": "MIC", "setting": "Escherichia coli [5]", "value": 128, "unit": "µM"}, {"measurement": "MIC", "setting": "Klebsiella pneumoniae", "value": 64, "unit": "µM"}, {"measurement": "MIC", "setting": "Acinetobacter baumannii", "value": 128, "unit": "µM"}, {"measurement": "HC10", "setting": "[6]", "value": 6.56, "unit": "µM"}]}, {"smiles": "CC[C@H](C)[C@H](N)C(=O)N[C@@H](CCCCN)C(=O)N[C@H](C(=O)N[C@@H](CCCCN)C(=O)N[C@H](C(=O)N[C@@H](CCCCN)C(=O)N1CCC[C@H]1C(=O)N[C@@H](Cc1c[nH]c2ccccc12)C(=O)N[C@@H](Cc1c[nH]c2ccccc12)C(=O)N[C@@H](Cc1c[nH]c2ccccc12)C(=O)N1CCC[C@H]1C(=O)N[C@@H](CCCCN)C(=O)N[C@H](C(=O)N[C@@H](CCCCN)C(=O)N[C@H](C(=O)N[C@@H](CCCCN)C(=O)N[C@H](C(N)=O)[C@@H](C)CC)[C@@H](C)CC)[C@@H](C)CC)[C@@H](C)CC)[C@@H](C)CC", "note": "(H-IKIKIKPWWWPKIKIKI-NH2)", "values": [{"measurement": "MIC", "setting": "Staphylococcus aureus [1]", "value": 4, "unit": "µM"}, {"measurement": "MIC", "setting": "Staphylococcus aureus [2]", "value": 8, "unit": "µM"}, {"measurement": "MIC", "setting": "[3]", "value": 2, "unit": "µM"}, {"measurement": "MIC", "setting": "Enterococcus faecalis", "value": 2, "unit": "µM"}, {"measurement": "MIC", "setting": "Escherichia coli [4]", "value": 64, "unit": "µM"}, {"measurement": "MIC", "setting": "Escherichia coli [5]", "value": 64, "unit": "µM"}, {"measurement": "MIC", "setting": "Klebsiella pneumoniae", "value": 64, "unit": "µM"}, {"measurement": "MIC", "setting": "Acinetobacter baumannii", "value": 64, "unit": "µM"}, {"measurement": "HC10", "setting": "[6]", "value": 116.64, "unit": "µM"}]}, {"smiles": "CC[C@H](C)[C@H](N)C(=O)N[C@@H](CCCCN)C(=O)N[C@H](C(=O)N[C@@H](CCCCN)C(=O)N1CCC[C@H]1C(=O)N[C@@H](Cc1c[nH]c2ccccc12)C(=O)N[C@@H](Cc1c[nH]c2ccccc12)C(=O)N[C@@H](Cc1c[nH]c2ccccc12)C(=O)N1CCC[C@H]1C(=O)N[C@@H](CCCCN)C(=O)N[C@H](C(=O)N[C@@H](CCCCN)C(=O)N[C@H](C(N)=O)[C@@H](C)CC)[C@@H](C)CC)[C@@H](C)CC", "note": "(H-IKIKPWWWPKIKI-NH2)", "values": [{"measurement": "MIC", "setting": "Staphylococcus aureus [1]", "value": 8, "unit": "µM"}, {"measurement": "MIC", "setting": "Staphylococcus aureus [2]", "value": 8, "unit": "µM"}, {"measurement": "MIC", "setting": "[3]", "value": 16, "unit": "µM"}, {"measurement": "MIC", "setting": "Enterococcus faecalis", "value": 16, "unit": "µM"}, {"measurement": "MIC", "setting": "Escherichia coli [4]", "value": 16, "unit": "µM"}, {"measurement": "MIC", "setting": "Escherichia coli [5]", "value": 16, "unit": "µM"}, {"measurement": "MIC", "setting": "Klebsiella pneumoniae", "value": 64, "unit": "µM"}, {"measurement": "MIC", "setting": "Acinetobacter baumannii", "value": 16, "unit": "µM"}, {"measurement": "HC10", "setting": "[6]", "value": "> 256", "unit": "µM"}]}, {"smiles": "CC(C)CCCCC(=O)N[C@@H](CCN)C(=O)N[C@H](C(=O)N[C@@H](CCN)C(=O)N[C@H]1CCNC(=O)[C@H]([C@@H](C)O)NC(=O)[C@H](CCN)NC(=O)[C@H](CCN)NC(=O)[C@H](CC(C)C)NC(=O)[C@@H](Cc2ccccc2)NC(=O)[C@H](CCN)NC1=O)[C@@H](C)O.CC[C@H](C)CCCCC(=O)N[C@@H](CCN)C(=O)N[C@H](C(=O)N[C@@H](CCN)C(=O)N[C@H]1CCNC(=O)[C@H]([C@@H](C)O)NC(=O)[C@H](CCN)NC(=O)[C@H](CCN)NC(=O)[C@H](CC(C)C)NC(=O)[C@@H](Cc2ccccc2)NC(=O)[C@H](CCN)NC1=O)[C@@H](C)O", "note": "(X1-[Dab]T[Dab][Dab][Dab][dF]L[Dab][Dab]T; lactam 4-C)", "values": [{"measurement": "MIC", "setting": "Staphylococcus aureus [1]", "value": 16, "unit": "µM"}, {"measurement": "MIC", "setting": "Staphylococcus aureus [2]", "value": 16, "unit": "µM"}, {"measurement": "MIC", "setting": "[3]", "value": 16, "unit": "µM"}, {"measurement": "MIC", "setting": "Enterococcus faecalis", "value": 128, "unit": "µM"}, {"measurement": "MIC", "setting": "Escherichia coli [4]", "value": 2, "unit": "µM"}, {"measurement": "MIC", "setting": "Escherichia coli [5]", "value": 2, "unit": "µM"}, {"measurement": "MIC", "setting": "Klebsiella pneumoniae", "value": 2, "unit": "µM"}, {"measurement": "MIC", "setting": "Acinetobacter baumannii", "value": 2, "unit": "µM"}]}]}
